Measured values reported in US8795632B2, “Disease animal model for chronic pain” (Astellas Pharma Inc., priority 2008, dated 2014).

Legend:
[1] = system: reserpine repeated administration-induced muscle pressure pain threshold value reduction; test: Effects of drugs on reserpine repeated administration-induced reduction of muscle pressure pain threshold value; format: in vivo, rat; details: for effect on reserpine repeated administration-induced muscle pressure pain threshold value reduction / dose at which the effect was statistically significant by the index of muscle pressure pain threshold value: male rats, pregabalin, duloxetine, diclofenac oral, pramipexole subcutaneous; for effect on reserpine repeated administration-induced muscle pressure pain threshold value reduction: 5 days after final reserpine (1 mg/kg s.c. x 3 days), 30-240 min after drug; for dose at which the effect was statistically significant by the index of muscle pressure pain threshold value: 5 days after final reserpine, two-way analysis of variance and Bonferroni; for efficacy on this disease animal model (reserpine-treated mammal): summary statement, chronic muscle pain and tactile allodynia model
Protocol: Male Sprague-Dawley rats (Japan SLC, Hamamatsu, Japan) were used as the animal. A total of 30 rats were used for each drug. As shown in Example 1, 1 mg/kg of reserpine was repeatedly administered subcutaneously on the back of 24 rats once a day for 3 days to induce reduction of the muscle pressure pain threshold value and skin pain sensation threshold value. The other 6 rats were subjected to the test as a healthy control group without carrying out the reserpine treatment.
All of the evaluations of drug effects were carried out 5 days after the final administration of reserpine.
On the day of drug effect evaluation (5 days after the final administration of reserpine), the muscle pressure pain threshold value and skin pain sensation threshold value were firstly measured on all of the rats (24 reserpine-treated rats and 6 healthy rats). The 24 reserpine-treated rats were divided into 4 groups based on the doses of the test drug, and the muscle pressure pain threshold value and skin pain sensation threshold value were measured after 30, 60, 120 or 240 minutes of the drug or solvent administration. On the 6 healthy rats, the drug administration was not carried out, but only the measurement of muscle pressure pain threshold value and skin pain sensation threshold value was carried out.
All of the measured values were expressed as average value±standard error. Statistical significance test of the measured values between the test drug administration groups and the solvent administration group at each point of time was carried out by a two-way analysis of variance and the Bonferroni method. Probability value (P) of less than 5% was judged as statistically significant (P<0.05 was expressed as * in the graphs).

[2] = system: reserpine repeated administration-induced skin pain sensation threshold value reduction; test: Effects of drugs on reserpine repeated administration-induced reduction of skin pain sensation threshold value; format: in vivo, rat; details: male rats, pregabalin, diclofenac oral, pramipexole subcutaneous; for effect on reserpine repeated administration-induced skin pain sensation threshold value reduction: 5 days after final reserpine (1 mg/kg s.c. x 3 days), 30-240 min after drug, duloxetine; for dose at which the effect was statistically significant by the index of skin pain sensation threshold value: 5 days after final reserpine, two-way analysis of variance and Bonferroni
fibromyalgia patients = details: cited from earlier work; for pain symptom score of fibromyalgia patients in comparison with the placebo group: Non-patent References 7 to 9; for effect in the treatment of fibromyalgia patients (clinical trial): literature clinical trials

| Compound | effect on reserpine repeated administration-induced muscle pressure pain threshold value reduction [1] | dose at which the effect was statistically significant by the index of muscle pressure pain threshold value [1] | efficacy on this disease animal model (reserpine-treated mammal) [1] | effect on reserpine repeated administration-induced skin pain sensation threshold value reduction [2] | pain symptom score of fibromyalgia patients in comparison with the placebo group (fibromyalgia patients) | effect in the treatment of fibromyalgia patients (clinical trial) (fibromyalgia patients) | dose at which the effect was statistically significant by the index of skin pain sensation threshold value [2] |
| --- | --- | --- | --- | --- | --- | --- | --- |
| CNCC[C@H](Oc1cccc2ccccc12)c1cccs1 [duloxetine] | statistically significantly recovered | 30 mg/kg | effective | showed a tendency to recover the reserpine repeated administration-induced skin pain sensation pain threshold value reduction but was not statistically significant | alleviates the pain symptom score of fibromyalgia patients statistically significantly | usefulness has been proved |  |
| COc1ccc2cc([C@H](C)C(=O)O)ccc2c1 [naproxen] |  |  |  |  |  | do not have a significant effect |  |
| O=C(O)Cc1ccccc1Nc1c(Cl)cccc1Cl [diclofenac] | did not recover | > 10 mg/kg | not effective | did not recover |  |  | > 10 mg/kg |
| CC(C)Cc1ccc(C(C)C(=O)O)cc1 (stereo not shown) [ibuprofen] |  |  |  |  |  | do not have a significant effect |  |
| CC(C)C[C@H](CN)CC(=O)O [pregabalin] | dose-dependently recovered |  | effective | dose-dependently recovered | alleviates the pain symptom score of fibromyalgia patients statistically significantly | usefulness has been proved | 30 mg/kg |
